# Several values for one entry are separate records, joined by “and”; a condition that tells them apart may be missing. Equal values may be shown once.
# Test system: Swiss mice, Sarcoma 180 sc, mean tumor weight T/C
# Test: NCI In Vivo Anticancer Drug Screen. Data for tumor model Sarcoma 180 (subcutaneous) in Swiss mice
# Settings: endpoint: mean tumor weight, higher = larger tumour
# In short: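 Mice bearing transplanted tumors were treated with compound, and survival or tumor size was measured. Values are expressed as the treated-group measurement (T) divided by the vehicle-treated control measurement (C).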
# [1] = dose: 120.0 mg/kg/injection, schedule: Q01DX007 (ip), vehicle: carboxymethylcellulose (CMC)
# [2] = dose: 125.0 mg/kg/injection, schedule: Q01DX007 (ip), vehicle: saline
# [3] = dose: 150.0 mg/kg/injection, schedule: Q01DX007 (ip), vehicle: carboxymethylcellulose (CMC)
# [4] = dose: 2.5 mg/kg/injection, schedule: Q01DX007 (sc), vehicle: steriod suspending solution
# [5] = dose: 5.0 mg/kg/injection, schedule: Q01DX007 (sc), vehicle: steriod suspending solution
smiles,measurement,setting,value
Nc1nc(SC2CCCCC2)c2[nH]cnc2n1,T/C,[1],89 % of control
same,T/C,"dose: 240.0 mg/kg/injection, schedule: Q01DX007 (ip), vehicle: carboxymethylcellulose (CMC)",33 % of control
CCCC(=O)OCC1OC(n2cnc3c(=S)nc(N)[nH]c32)C(OC(=O)CCC)C1OC(=O)CCC (stereo not drawn),T/C,"dose: 4.1 mg/kg/injection, schedule: Q01DX007 (ip), vehicle: carboxymethylcellulose (CMC)",52 % of control
same,T/C,"dose: 6.2 mg/kg/injection, schedule: Q01DX007 (ip), vehicle: carboxymethylcellulose (CMC)",72 % of control
same,T/C,"dose: 9.3 mg/kg/injection, schedule: Q01DX007 (ip), vehicle: carboxymethylcellulose (CMC)",45 % of control
same,T/C,"dose: 47.0 mg/kg/injection, schedule: Q01DX007 (ip), vehicle: carboxymethylcellulose (CMC)",39 % of control
COc1cc(C[C@H]2c3cc(OC)c(OC)cc3CCN2C)c(Oc2cc3c(cc2OC)-c2c(OC)c(OC)cc4c2[C@H](C3)N(C)CC4)cc1OC,T/C,"dose: 7.8 mg/kg/injection, schedule: Q01DX007 (ip), vehicle: saline",96 % of control
same,T/C,"dose: 15.6 mg/kg/injection, schedule: Q01DX007 (ip), vehicle: saline",77 % of control
same,T/C,"dose: 31.3 mg/kg/injection, schedule: Q01DX007 (ip), vehicle: saline",78 % of control
same,T/C,"dose: 62.5 mg/kg/injection, schedule: Q01DX007 (ip), vehicle: saline",57 % of control and 68 % of control
same,T/C,[2],63 % of control
CC(=O)Nc1cc2oc3ccccc3c2cc1[N+](=O)[O-],T/C,"dose: 220.0 mg/kg/injection, schedule: Q01DX007 (ip), vehicle: methylcellulose (MC)",67 % of control
same,T/C,"dose: 335.0 mg/kg/injection, schedule: Q01DX007 (ip), vehicle: methylcellulose (MC)",67 % of control
same,T/C,"dose: 400.0 mg/kg/injection, schedule: Q01DX007 (ip), vehicle: methylcellulose (MC)",72 % of control
same,T/C,"dose: 500.0 mg/kg/injection, schedule: Q01DX007 (ip), vehicle: methylcellulose (MC)",52 % of control
same,T/C,"dose: 600.0 mg/kg/injection, schedule: Q01DX007 (ip), vehicle: methylcellulose (MC)",77 % of control
CC1CCC2(NC1)OC1CC3C4CC=C5CC(OC6OC(CO)C(OC7OC(C)C(O)C(O)C7O)C(O)C6OC6OC(C)C(O)C(O)C6O)CCC5(C)C4CCC3(C)C1C2C (stereo not drawn),T/C,"dose: 150.0 mg/kg/injection, schedule: Q01DX007 (sc), vehicle: steriod suspending solution",115 % of control
same,T/C,"dose: 300.0 mg/kg/injection, schedule: Q01DX007 (sc), vehicle: steriod suspending solution",100 % of control
same,T/C,"dose: 500.0 mg/kg/injection, schedule: Q01DX007 (sc), vehicle: steriod suspending solution",79 % of control
CNC=O,T/C,"dose: 19.87 mg/kg/injection, schedule: Q#A X014 (ip), vehicle: carboxymethylcellulose (CMC)",107 % of control
same,T/C,"dose: 39.75 mg/kg/injection, schedule: Q#A X014 (ip), vehicle: carboxymethylcellulose (CMC)",67 % of control
same,T/C,"dose: 79.5 mg/kg/injection, schedule: Q#A X014 (ip), vehicle: carboxymethylcellulose (CMC)",23 % of control
same,T/C,"dose: 100.0 mg/kg/injection, schedule: Q#A X014 (ip), vehicle: saline",20 % of control
same,T/C,[1],19 % of control
same,T/C,[2],8 % of control and 12 % of control
same,T/C,[3],16 % of control
same,T/C,"dose: 150.0 mg/kg/injection, schedule: Q01DX007 (ip), vehicle: saline",4 % of control and 7 % of control
same,T/C,"dose: 159.0 mg/kg/injection, schedule: Q#A X014 (ip), vehicle: carboxymethylcellulose (CMC)",8 % of control
same,T/C,"dose: 175.0 mg/kg/injection, schedule: Q01DX007 (ip), vehicle: saline",1 % of control and 5 % of control
same,T/C,"dose: 200.0 mg/kg/injection, schedule: Q01DX007 (ip), vehicle: carboxymethylcellulose (CMC)",9 % of control
same,T/C,"dose: 200.0 mg/kg/injection, schedule: Q01DX007 (ip), vehicle: saline",2 % of control and 3 % of control and 26 % of control
same,T/C,"dose: 225.0 mg/kg/injection, schedule: Q01DX007 (ip), vehicle: saline",1 % of control and 3 % of control
same,T/C,"dose: 250.0 mg/kg/injection, schedule: Q01DX007 (ip), vehicle: saline",1 % of control and 2 % of control
same,T/C,"dose: 275.0 mg/kg/injection, schedule: Q01DX007 (ip), vehicle: saline",1 % of control
same,T/C,"dose: 325.0 mg/kg/injection, schedule: Q01DX007 (ip), vehicle: saline",1 % of control
same,T/C,"dose: 400.0 mg/kg/injection, schedule: Q01DX007 (ip), vehicle: saline",24 % of control
Clc1ccc2c(c1)C(Br)c1cc(Cl)cc(Cl)c1-2 (stereo not drawn),T/C,"dose: 222.0 mg/kg/injection, schedule: Q01DX007 (ip), vehicle: other",66 % of control
same,T/C,"dose: 222.0 mg/kg/injection, schedule: Q01DX007 (ip), vehicle: saline",67 % of control
same,T/C,"dose: 333.0 mg/kg/injection, schedule: Q01DX007 (ip), vehicle: other",27 % of control
same,T/C,"dose: 333.0 mg/kg/injection, schedule: Q01DX007 (ip), vehicle: saline",32 % of control
same,T/C,"dose: 500.0 mg/kg/injection, schedule: Q01DX007 (ip), vehicle: other",30 % of control
same,T/C,"dose: 750.0 mg/kg/injection, schedule: Q01DX007 (ip), vehicle: other",21 % of control
CN(N=O)C(=O)Nc1c[nH]c(=O)[nH]c1=O,T/C,"dose: 25.0 mg/kg/injection, schedule: Q#A X014 (ip), vehicle: carboxymethylcellulose (CMC)",33 % of control
CCOC(=O)C(N)CC(C)C (stereo not drawn),T/C,"dose: 250.0 mg/kg/injection, schedule: Q01DX007 (ip), vehicle: carboxymethylcellulose (CMC)",101 % of control
same,T/C,"dose: 500.0 mg/kg/injection, schedule: Q01DX007 (ip), vehicle: carboxymethylcellulose (CMC)",120 % of control
O=c1[nH]c2cc(Cl)c(Cl)cc2o1,T/C,"dose: 19.0 mg/kg/injection, schedule: Q01DX007 (ip), vehicle: carboxymethylcellulose (CMC)",83 % of control
same,T/C,"dose: 37.5 mg/kg/injection, schedule: Q01DX007 (ip), vehicle: carboxymethylcellulose (CMC)",90 % of control
same,T/C,"dose: 75.0 mg/kg/injection, schedule: Q01DX007 (ip), vehicle: carboxymethylcellulose (CMC)",94 % of control
same,T/C,[3],81 % of control
CC1(c2ccccc2)O[C@@H]2C[C@H]3[C@@H]4CCC5=CC(=O)C=C[C@]5(C)[C@@]4(F)[C@@H](O)C[C@]3(C)[C@]2(C(=O)CO)O1 (stereo partly drawn),T/C,"dose: 1.2 mg/kg/injection, schedule: Q01DX007 (sc), vehicle: steriod suspending solution",72 % of control
same,T/C,"dose: 1.7 mg/kg/injection, schedule: Q#A X014 (sc), vehicle: steriod suspending solution",70 % of control
same,T/C,[4],70 % of control
same,T/C,"dose: 2.6 mg/kg/injection, schedule: Q#A X014 (sc), vehicle: steriod suspending solution",32 % of control
same,T/C,[5],52 % of control
same,T/C,"dose: 6.0 mg/kg/injection, schedule: Q01DX007 (sc), vehicle: steriod suspending solution",63 % of control
same,T/C,"dose: 39.0 mg/kg/injection, schedule: Q01DX007 (sc), vehicle: steriod suspending solution",28 % of control
same,T/C,"dose: 50.0 mg/kg/injection, schedule: Q01DX007 (sc), vehicle: steriod suspending solution",14 % of control
same,T/C,"dose: 60.0 mg/kg/injection, schedule: Q01DX007 (sc), vehicle: steriod suspending solution",33 % of control
same,T/C,"dose: 100.0 mg/kg/injection, schedule: Q01DX007 (sc), vehicle: steriod suspending solution",7 % of control
c1cncc(CSc2ncnc3nc[nH]c23)c1,T/C,"dose: 11.1 mg/kg/injection, schedule: Q#A X014 (ip), vehicle: methylcellulose (MC)",53 % of control
same,T/C,"dose: 16.65 mg/kg/injection, schedule: Q#A X014 (ip), vehicle: methylcellulose (MC)",60 % of control
same,T/C,"dose: 25.0 mg/kg/injection, schedule: Q#A X014 (ip), vehicle: methylcellulose (MC)",70 % of control
same,T/C,"dose: 37.5 mg/kg/injection, schedule: Q#A X014 (ip), vehicle: methylcellulose (MC)",47 % of control
CC(=O)C1(/C(C)=C/C2C(C=O)=CC(C)(C)C2O)CC1 (stereo not drawn),T/C,"dose: 0.25 mg/kg/injection, schedule: Q01DX007 (ip), vehicle: saline",106 % of control
same,T/C,"dose: 0.5 mg/kg/injection, schedule: Q01DX007 (ip), vehicle: saline",59 % of control
same,T/C,"dose: 1.0 mg/kg/injection, schedule: Q01DX007 (ip), vehicle: saline",65 % of control
same,T/C,"dose: 2.0 mg/kg/injection, schedule: Q01DX007 (ip), vehicle: saline",67 % of control
same,T/C,"dose: 8.0 mg/kg/injection, schedule: Q01DX007 (ip), vehicle: saline",75 % of control
same,T/C,"dose: 16.0 mg/kg/injection, schedule: Q01DX007 (ip), vehicle: saline",94 % of control and 102 % of control
same,T/C,"dose: 32.0 mg/kg/injection, schedule: Q01DX007 (ip), vehicle: saline",99 % of control
same,T/C,"dose: 64.0 mg/kg/injection, schedule: Q01DX007 (ip), vehicle: saline",77 % of control
same,T/C,"dose: 128.0 mg/kg/injection, schedule: Q01DX007 (ip), vehicle: saline",78 % of control
COc1ccc2c(c1)CC[C@@H]1[C@@H]2CC[C@]2(C)C=CC[C@@H]12,T/C,[4],104 % of control
same,T/C,[5],91 % of control
same,T/C,"dose: 10.0 mg/kg/injection, schedule: Q01DX007 (sc), vehicle: steriod suspending solution",75 % of control
COc1ccc2c(c[n+](C)c3c4cc5c(cc4ccc23)OCO5)c1OC,T/C,"dose: 50.0 mg/kg/injection, schedule: Q01DX007 (ip), vehicle: carboxymethylcellulose (CMC)",60 % of control
same,T/C,"dose: 100.0 mg/kg/injection, schedule: Q01DX007 (ip), vehicle: carboxymethylcellulose (CMC)",83 % of control
CC(=O)OCC1=CC2OC(=O)C3=COC(OC4OC(CO)C(O)C(O)C4O)C1C32 (stereo not drawn),T/C,"dose: 220.0 mg/kg/injection, schedule: Q01DX007 (ip), vehicle: carboxymethylcellulose (CMC)",67 % of control

# Reference: PubChem BioAssay AID342 (DTP/NCI, 2004)
